Source: PubChem BioAssay (NCI)
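Tested at 5 concentrations; 48 h exposure; 96-well plates; endpoints linearly interpolated, else capped at highest concentration. The concentration for full growth arrest is given as TGI.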

How the values were obtained:
Assay in all cases: NCI-60 cell line screen, 48 h
DLD-1 colon = system: DLD-1 colon
DMS 114 small cell lung = system: DMS 114 small cell lung
HOP-18 NSCLC = system: HOP-18 NSCLC
KM20L2 colon = system: KM20L2 colon
LXFL 529 NSCLC = system: LXFL 529 NSCLC
M19-MEL melanoma = system: M19-MEL melanoma
RXF-631 renal = system: RXF-631 renal

SMILES | TGI (DLD-1 colon) | TGI (DMS 114 small cell lung) | TGI (HOP-18 NSCLC) | TGI (KM20L2 colon) | TGI (LXFL 529 NSCLC) | TGI (M19-MEL melanoma) | TGI (RXF-631 renal)
C=C(CN(C)C)C(=O)c1ccccc1 | 11.5 µM | 11.1 µM | 14.8 µM | 39.8 µM | 5.64 µM | 22.9 µM | 48.5 µM
Nc1nc(N)c(N=Nc2ccccc2)c(=O)[nH]1 | > 100 µM | 71.2 µM | > 100 µM | > 100 µM | – | > 100 µM | –
O=C(Nc1ccc(C(F)(F)F)cc1[N+](=O)[O-])C(=O)Nn1c(=S)[nH]c2ccccc2c1=O | > 100 µM | > 100 µM | > 100 µM | > 100 µM | – | > 100 µM | > 100 µM
